The source of these data is patent US12285428B2 (IMBRIA PHARMACEUTICALS, INC., priority 2021, dated 2025).

Read-outs that look alike come from different tables or passages of the source.

Data set [1] can be described thus: clinical. The note with it: in vivo, po. Here is the method: Before dosing (on Days 1, 4, 7, and 10 in the single-dose MR part), subjects fasted overnight for at least 10 hours following a light supper on the evening before. Following dosing, subjects fasted for 4 hours until lunch. During fasting, fluids other than water were not allowed; however, water was not allowed from 2 hours predose until 1 hour postdose (apart from the water taken with the dose).
The AUCs were calculated using the linear up/log down trapezoidal rule, expressed in units of concentration×time.
Subjects with R2 below 0.80 or % AUCextra>20% were not excluded from the dose-proportionality evaluation based on AUC0-inf. A point estimate and 95% CI were produced for the slope. […] Since there were only 2 dose levels in the MAD part, no dose-proportionality analysis was performed for the MAD part.

The conditions of data set [2]: human, in vivo. The method, then:
Subjects received multiple oral doses of an IR formulation of IMB-1018972 or placebo once every 12 hours (q12h) for 14 consecutive days.
The doses were selected based upon the safety, tolerability, and PK data from the SAD part: • Group B1 multiple oral doses of an IR formulation of 150 mg IMB-1018972 (n=9) or matching placebo (n=3) twice daily (q12h) for 14 days; on Day 14 only a single morning dose was administered • Group B2: multiple oral doses of an IR formulation of 50 mg IMB-1018972 (n=9) or matching placebo (n=3) q12h for 14 days; on Day 14 only a single morning dose was administered
Before each morning dose, subjects fasted overnight for at least 10 hours following a snack on the evening before. On Days 1 and 14, subjects received a standardized breakfast that had to be consumed within 20 minutes. Dosing occurred at 30 minutes after the start of breakfast. Following dosing, subjects fasted for 4 hours until lunch. During fasting, fluids other than water were not allowed. On Days 2 to 13, breakfast was not standardized and was given within maximally 1 hour before dosing and consumed before dosing. No fasting after dosing was applicable on these days.
On all dosing days, an evening snack was given within maximally 1 hour before dosing and consumed before dosing.

For data set [3] the following is noted: human, in vivo, po.
Data set [4] can be described thus: FIH study, SAD part: PK in urine.
Method: (§1) Urine collection for PK was only conducted in the SAD part, but not in the second period of the FE group A4. […] The subjects were instructed to empty their bladders completely before study drug administration and at the end of each collection interval. A blank urine sample was collected within 12 hours prior to study drug administration. The exact times of urine collection and the urine weight of the entire interval (before and after addition of any urine stabilizers, if used) were recorded in the eCRF.
Data set [5] can be described thus: clinical. The note with it: human, in vivo, po.
Method: as §1
Data set [6] can be described thus: FIH study, FE arm of SAD part: effect of food on plasma PK (150 mg IMB-1018972). The note with it: human, in vivo. The method, then: Subjects assigned to Group A4 also participated in the FE arm and received the same single dose of IMB-1018972 or placebo under fed conditions (Food and Drug Administration [FDA]-defined high-fat breakfast after an overnight fast of at least 10 hours) in a second period at least 1 week after drug administration under fasted conditions in the SAD part.
Then, subjects received an FDA-defined high-fat breakfast that had to be consumed within 20 minutes. The entire breakfast had to be consumed by the subjects. […] Following dosing, subjects fasted for 4 hours until lunch. During fasting, fluids other than water were not allowed.
For the second period of Group A4 in the FE arm, and for Day 13 of the single-dose MR part, the FDA-defined high-fat breakfast of 918 kcal consisted of: • 2 fried eggs (in 15 g butter/margarine) (approximately 100 g) • 1 portion of bacon (40 g) (or brie 60+ for vegetarians) • 1 portion of fried potatoes (115 g) • 2 slices of (toasted) (wheat) bread (approximately 70 g) with 15 g margarine • 1 glass of whole milk (240 mL) The total of 918 kcal (vegetarian version 915 kcal) could be broken down as follows: • 39 g protein=156 kcal • 59 g fat=527 kcal • 59 g carbohydrates=235 kcal Blinding

The conditions of data set [7]: human, in vivo. The source holds these as a separate data set.
Method: as §1
For data set [8] the following is noted: human, in vivo, 200 mg. Here is the method:
On Day 13, subjects received a FDA-defined high-fat breakfast that had to be consumed within 20 minutes. […] Following dosing, subjects fasted for 4 hours until lunch. During fasting, fluids other than water were not allowed. Subjects were not allowed to lie down for 4 hours after dosing, except when required for assessments that needed to be performed.

In the case of `COc1ccc(CN2CCNCC2)c(OC)c1OC` [trimetazidine, reference compound], the “Time at which detectable plasma concentrations were generally seen” value in data set [1] (human) is 15 to 30 min. Moreover, the “Geometric mean Cmax lower on Day 1 after 150 mg fed in the MAD part than after single 150 mg fed in the SAD part” value in data set [2] is recorded as 32%. For the same molecule, in data set [3], the “AUC0-t higher after the 8-hour MR formulation than after the 4-hour MR formulation” value is 4% and the “AUC0-t lower after the 8-hour MR formulation than after the 4-hour MR formulation” value is 12%. Moreover, the Primary clearance mechanism entry in data set [4] (concluded from urinary excretion) is on record as “renal excretion”. For the same molecule, the “Renal handling (CLR greater than glomerular filtration rate, 7.5 L/h)” value in data set [4] (in vivo) was “net tubular secretion”. Moreover, the “Arithmetic mean percent of the dose excreted in urine as trimetazidine” value in data set [4] (within 48 hours after single oral 35 mg trimetazidine) is listed as 54.47%.

As for `COc1ccc(CN2CCN(CCO)CC2)c(OC)c1OC` [IMB-1028814, 2-[4-[(2,3,4-trimethoxyphenyl)methyl]piperazin-1-yl]ethanol], in data set [1] (human), the “Time at which detectable plasma concentrations were generally seen” value was in the range of 15 to 30 min, the Tmax is around 1 h and the half-life lay within 2.6 to 3 h. Also, the Tmax in data set [1] (human, 50 mg) is 0.5 to 1.02 h. Moreover, the Fashion of elimination entry in data set [1] is on record as “biphasic”. In addition, the “Geometric mean Cmax higher on Day 1 after 150 mg fed in the MAD part than after single 150 mg fed in the SAD part” value in data set [2] came out at 97%. Besides, in data set [3], the “AUC0-t higher after the 8-hour MR formulation than after the 4-hour MR formulation” value was found to be 6% and the “AUC0-t lower after the 8-hour MR formulation than after the 4-hour MR formulation” value was 26%. This molecule also had a CL renal in data set [5] of 62.7 to 89.5 mL/min. Further, in data set [6], the “Cmax lower after high-fat breakfast relative to fasted conditions” value is “approximately 36%”, the “Effect of food on AUC0-inf: estimate (fed relative to fasted)” value was 1.12, the “Effect of food on AUC0-t: estimate (fed relative to fasted)” value is recorded as 1.12 and the “Effect of food on Cmax: estimate (fed relative to fasted)” value was 0.64. The Tmax in data set [6] (Median tmax) worked out at 1 h. Besides, in data set [7], the Primary clearance mechanism entry was “metabolism”. Besides, in data set [8], the “Cmax higher after high-fat breakfast relative to fasted conditions” value is “approximately 42%”, the “Effect of food on AUC0-inf: estimate (fed relative to fasted)” value is on record as 1.16, the “Effect of food on AUC0-t: estimate (fed relative to fasted)” value is 1.16 and the “Effect of food on Cmax: estimate (fed relative to fasted)” value is 1.42.
